# Data taken from patent US8877800B2, “Kappa-opiate agonists for the treatment of diarrhea-predominant irritable bowel syndrome” (Tioga Pharmaceuticals, Inc., priority 2007, dated 2014).
# Tests used:
# [1] = test system: patients with IBS; assay: Example 1: randomized, double-blind, placebo controlled 4-week on-demand asimadoline study in participants with IBS; settings: for Δ Pain intensity (mean ± SE): VAS, 2 hours after first dose
# [2] = moisture, heat, aerial oxygen, light; cited from earlier work
# [3] = test system: gastric and colon distention; settings: animal models; cited from earlier work
# [4] = cited from earlier work
# [5] = test system: IBS-D, IBS-C and IBS-A patients; assay: Example 2: 12-week randomized, double-blind, dose-ranging, placebo-controlled fixed-dose asimadoline study in IBS; assay type: in vivo, human; settings: for urgency: all three months; for improvement over placebo in percent number of months with adequate relief / percent number of months with adequate relief of IBS pain or discomfort: all IBS subjects with moderate or severe pain
# Procedure: Diarrhea-predominant (IBS-D), constipation-predominant (IBS-C), and alternating IBS (IBS-A) patients were recruited from 120 sites in the United States. Patients underwent a two week screening period to ensure adequate symptoms and compliance with the interactive voice response system (IVRS) data collection system, followed by twelve weeks of treatment and a four week follow-up period. Patients received identical appearing placebo, 0.15 mg, 0.5 mg or 1.0 mg asimadoline tablets b.i.d. for the 12 week treatment period. During screening, treatment and follow-up patients entered data every day on the IVRS.
# The primary endpoint was the number of months a patient was a responder for adequate relief, where the primary measure was the question, “In the past 7 days have you had adequate relief of your IBS pain or discomfort?” This measure was asked once every 7 days and a monthly responder replied “yes” at least 3 weeks per month. Numerous secondary endpoints, abdominal pain or discomfort, stool frequency, urgency, bloating, stool consistency, adequate relief of IBS symptoms and straining were also collected. Additionally, adverse clinical events, laboratory test data and electrocardiograms (ECGs) were collected.
# Of the 596 subjects who were randomized, 344 reported baseline pain scores of 2.0 or higher. The pain score was a self reported score on a scale of 0-3, where 0=no pain, 1=mild pain, 2=moderate pain and 3=severe pain Subjects having scores of 2.0 or higher were categorized as having moderate or severe pain. Of the 344 moderate or severe pain subjects, 104 were classified as having IBS-D, 114 IBS-A and 126 IBS-C.
# [6] = cited from earlier work; remark: listed apart in the source
# [7] = biological target: kappa-opiate receptor (Homo sapiens, UniProt P41145); settings: read-out: affinity for the kappa-opiate receptor, IC50; cited from earlier work
# Chain of kappa-opiate receptor (P41145 whole entry): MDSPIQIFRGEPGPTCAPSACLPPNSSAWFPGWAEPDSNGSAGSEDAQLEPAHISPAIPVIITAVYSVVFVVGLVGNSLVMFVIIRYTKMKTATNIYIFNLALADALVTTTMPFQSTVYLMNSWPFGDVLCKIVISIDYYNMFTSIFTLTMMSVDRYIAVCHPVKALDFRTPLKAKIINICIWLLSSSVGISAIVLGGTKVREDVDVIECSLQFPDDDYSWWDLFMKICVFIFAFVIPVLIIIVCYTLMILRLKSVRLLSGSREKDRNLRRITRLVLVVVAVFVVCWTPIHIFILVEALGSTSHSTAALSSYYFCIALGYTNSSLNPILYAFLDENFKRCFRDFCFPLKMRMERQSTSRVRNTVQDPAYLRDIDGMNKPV
# [8] = biological target: mu opiate receptor (Homo sapiens, UniProt P35372); assay: selectivity: IC50 at mu opiate receptor relative to kappa; assay type: binding; settings: ratio kappa:mu:delta
# Chain of mu opiate receptor (P35372 whole entry): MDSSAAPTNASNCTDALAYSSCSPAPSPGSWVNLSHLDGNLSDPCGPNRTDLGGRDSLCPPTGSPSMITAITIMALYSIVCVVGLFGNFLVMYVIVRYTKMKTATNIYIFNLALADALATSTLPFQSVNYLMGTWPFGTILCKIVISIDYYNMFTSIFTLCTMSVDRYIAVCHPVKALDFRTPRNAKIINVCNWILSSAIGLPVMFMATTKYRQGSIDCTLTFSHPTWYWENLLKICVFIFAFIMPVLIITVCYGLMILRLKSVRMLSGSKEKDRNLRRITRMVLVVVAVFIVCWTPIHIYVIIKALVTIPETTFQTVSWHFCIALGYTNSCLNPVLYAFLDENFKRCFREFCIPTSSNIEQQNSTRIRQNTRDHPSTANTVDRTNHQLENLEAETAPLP
# [9] = biological target: delta opiate receptor (Homo sapiens, UniProt P41143); assay: selectivity: IC50 at delta opiate receptor relative to kappa; assay type: binding; settings: ratio kappa:mu:delta
# Chain of delta opiate receptor (P41143 whole entry): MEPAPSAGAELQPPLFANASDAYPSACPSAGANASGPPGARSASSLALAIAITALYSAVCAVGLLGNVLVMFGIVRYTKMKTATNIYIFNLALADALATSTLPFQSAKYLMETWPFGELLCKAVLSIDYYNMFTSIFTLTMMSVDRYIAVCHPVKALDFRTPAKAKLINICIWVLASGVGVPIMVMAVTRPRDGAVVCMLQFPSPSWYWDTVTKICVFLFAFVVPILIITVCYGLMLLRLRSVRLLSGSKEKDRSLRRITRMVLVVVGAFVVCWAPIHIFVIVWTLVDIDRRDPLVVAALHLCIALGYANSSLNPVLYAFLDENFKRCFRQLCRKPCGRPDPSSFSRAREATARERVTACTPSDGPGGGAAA
# [10] = test system: IBS patients; settings: Bardhan et al., Aliment Pharmacol Ther 2000; 14:23-34; cited from earlier work
compound,measurement,setting,value
"CN(C(=O)C(c1ccccc1)c1ccccc1)[C@H](CN1CC[C@H](O)C1)c1ccccc1.Cl [Asimadoline, N-[(1S)-2-[(3S)-3-hydroxypyrrolidin-1-yl]-1-phenylethyl]-N-methyl-2,2-diphenylacetamide, hydrochloride]",Proportion of days with adequate relief of symptoms (mean ± SE),[1]; IBS-A,0.46 ± 0.08
same,"change in bowel movements per day, corrected for placebo change from baseline",[1]; IBS-A,increase
same,delta pain intensity scores relative to placebo,"[1]; IBS-A (alternators), p=0.003",significantly better than placebo
same,Δ Pain intensity (mean ± SE),"[1]; IBS-A, unadjusted p = 0.003 vs placebo",37.8 ± 3.7 mm
same,"Δ mean # stools, treatment compared to baseline","[1]; IBS-A, on-demand, 4 weeks",0.0 ± 0.1
same,"Δ mean ease of passage, treatment compared to baseline","[1]; IBS-A, on-demand, 4 weeks",0.0 ± 0.1
same,"Δ mean stool form, treatment compared to baseline","[1]; IBS-A, on-demand, 4 weeks",0.2 ± 0.2
same,Proportion of days with adequate relief of symptoms (mean ± SE),[1]; IBS-C,0.11 ± 0.07
same,"change in bowel movements per day, corrected for placebo change from baseline",[1]; IBS-C,increase
same,Δ Pain intensity (mean ± SE),[1]; IBS-C,23.8 ± 4.0 mm
same,"Δ mean ease of passage, treatment compared to baseline","[1]; IBS-C, on-demand, 4 weeks",−0.1 ± 0.1
same,"Δ mean stool form, treatment compared to baseline","[1]; IBS-C, on-demand, 4 weeks",0.0 ± 0.2
same,Proportion of days with adequate relief of symptoms (mean ± SE),[1]; IBS-D,0.45 ± 0.08
same,"change in bowel movements per day, corrected for placebo change from baseline",[1]; IBS-D,decrease
same,Δ Pain intensity (mean ± SE),[1]; IBS-D,25.0 ± 2.9 mm
same,"Δ mean # stools, treatment compared to baseline","[1]; IBS-D, on-demand, 4 weeks",−0.3 ± 0.1
same,"Δ mean ease of passage, treatment compared to baseline","[1]; IBS-D, on-demand, 4 weeks",−0.1 ± 0.1
same,"Δ mean stool form, treatment compared to baseline","[1]; IBS-D, on-demand, 4 weeks",−0.1 ± 0.2
same,Adverse events: Body as a whole,"[1]; on-demand, 4 weeks",15.00%
same,Adverse events: Central and peripheral nervous system,"[1]; on-demand, 4 weeks",48.33%
same,Adverse events: Gastrointestinal,"[1]; on-demand, 4 weeks",16.67%
same,Adverse events: Genitourinary,"[1]; on-demand, 4 weeks",1.67%
same,Adverse events: Musculoskeletal,"[1]; on-demand, 4 weeks",6.67%
same,Adverse events: Psychiatric,"[1]; on-demand, 4 weeks",15.00%
same,Adverse events: Respiratory,"[1]; on-demand, 4 weeks",33.33%
same,serious clinical or laboratory adverse events,"[1]; on-demand, 4 weeks",no serious clinical or laboratory adverse events
same,tolerability,"[1]; on-demand, 4 weeks",well tolerated
same,stability of the substance,[2],"slightly sensitive to moisture, but stable against heat, aerial oxygen and light"
same,sensation responses to gastric and colon distention,[3],reduce sensation responses
same,bioavailability,[4]; fasting subjects,50%
same,effect of eating on bioavailability,[4]; food interaction studies,eating does not substantially impact bioavailability
same,half-life,[4]; in vivo,2 to 3 h
same,penetration of the blood-brain barrier,[4]; in vivo,poor penetration of the blood-brain barrier
same,Adverse events: Abdominal pain,[5]; 0.15 mg b.i.d.,5.4%
same,Adverse events: Constipation,[5]; 0.15 mg b.i.d.,12.8%
same,Adverse events: Diarrhea,[5]; 0.15 mg b.i.d.,13.4%
same,Adverse events: Dizziness,[5]; 0.15 mg b.i.d.,2.7%
same,Adverse events: Headache,[5]; 0.15 mg b.i.d.,9.4%
same,Adverse events: Nausea,[5]; 0.15 mg b.i.d.,5.4%
same,Adverse events: Sinusitis,[5]; 0.15 mg b.i.d.,4.7%
same,Adverse events: Abdominal pain,[5]; 0.5 mg b.i.d.,4.6%
same,Adverse events: Constipation,[5]; 0.5 mg b.i.d.,10.5%
same,Adverse events: Diarrhea,[5]; 0.5 mg b.i.d.,5.9%
same,Adverse events: Dizziness,[5]; 0.5 mg b.i.d.,1.3%
same,Adverse events: Headache,[5]; 0.5 mg b.i.d.,4.6%
same,Adverse events: Nausea,[5]; 0.5 mg b.i.d.,8.6%
same,Adverse events: Sinusitis,[5]; 0.5 mg b.i.d.,2.6%
same,Adverse events: Abdominal pain,[5]; 1.0 mg b.i.d.,4.2%
same,Adverse events: Constipation,[5]; 1.0 mg b.i.d.,7.6%
same,Adverse events: Diarrhea,[5]; 1.0 mg b.i.d.,11.1%
same,Adverse events: Dizziness,[5]; 1.0 mg b.i.d.,2.1%
same,Adverse events: Headache,[5]; 1.0 mg b.i.d.,5.6%
same,Adverse events: Nausea,[5]; 1.0 mg b.i.d.,2.8%
same,Adverse events: Sinusitis,[5]; 1.0 mg b.i.d.,6.3%
same,serious clinical or laboratory adverse events related to the treatment,"[5]; 0.15, 0.5 or 1.0 mg b.i.d., 12 weeks",No serious clinical or laboratory adverse events
same,pain scores,[5]; IBS-A subjects at these dosages,No statistically significant improvement
same,percent months with adequate relief of IBS pain or discomfort,"[5]; IBS-A, moderate or severe pain, 1.0 mg b.i.d., placebo 27%, p=0.022",50%
same,proportion of months with adequate relief of overall IBS symptoms,"[5]; IBS-A, moderate or severe pain, 1.0 mg b.i.d., placebo 30%, p=0.032",57%
same,percentage of monthly responders (adequate relief of pain or discomfort),"[5]; IBS-A, 1.0 mg b.i.d., first month, placebo 19%, p=0.017",46%
same,abdominal pain or discomfort associated with IBS,[5]; IBS-C subjects with moderate or severe pain,no statistically significant improvement
same,stool consistency,"[5]; IBS-D and IBS-C subjects, any of the three dosages",no statistically significant changes
same,bloating,"[5]; IBS-D, baseline pain scores ≧2.0, 1.0 mg, second month",statistically significant reductions
same,percent months with adequate relief of IBS pain or discomfort,"[5]; IBS-D, moderate or severe pain, 0.5 mg b.i.d., placebo 20%, p=0.011",47%
same,proportion of months with adequate relief of overall IBS symptoms,"[5]; IBS-D, moderate or severe pain, 0.5 mg b.i.d., placebo 23%, p=0.038",47%
same,urgency,"[5]; IBS-D, moderate or severe pain, 0.5 mg",statistically significant reductions
same,daily stool frequency,"[5]; IBS-D, moderate or severe pain, 0.5 mg, from week 3 to end of treatment",dramatic decrease
same,bloating,"[5]; IBS-D, moderate or severe pain, 0.5 mg, second and third months",Significant reductions
same,proportion of months with adequate relief of overall IBS symptoms,"[5]; IBS-D, moderate or severe pain, 1.0 mg b.i.d., placebo 23%, p=0.039",43%
same,urgency,"[5]; IBS-D, moderate or severe pain, 1.0 mg",statistically significant reductions
same,improvement in the percentage of pain-free days over placebo,"[5]; IBS-D, pain scores ≧2.0, 0.5 mg b.i.d., weeks 1-12",~30%
same,results in female versus male IBS-D subjects (adequate relief),"[5]; IBS-D, 0.5 mg",highly similar results
same,percentage of monthly responders (adequate relief of pain or discomfort),"[5]; IBS-D, 0.5 mg b.i.d., month 1, placebo 20%, p=0.045",48%
same,percentage of monthly responders (adequate relief of pain or discomfort),"[5]; IBS-D, 0.5 mg b.i.d., month 2, placebo 18%, p=0.010",52%
same,percentage of monthly responders (adequate relief of pain or discomfort),"[5]; IBS-D, 0.5 mg b.i.d., month 3, placebo 27%, p=0.010",50%
same,pain scores,"[5]; IBS-D, 0.5 mg, every week starting at week 3 and every month",statistically significant improvement
same,more pain free days compared to placebo,"[5]; IBS-D, 0.5 mg, over the 3 month study",21 days
same,pain scores,"[5]; IBS-D, 1.0 mg, every month and six of the twelve weeks",statistically significant improvement
same,improvement over placebo in percent number of months with adequate relief,[5]; 0.5 mg b.i.d.,17%
same,percent number of months with adequate relief of IBS pain or discomfort,"[5]; 0.5 mg b.i.d., placebo 23%, p=0.006",40%
same,improvement over placebo in percent number of months with adequate relief,[5]; 1.0 mg b.i.d.,17%
same,percent number of months with adequate relief of IBS pain or discomfort,"[5]; 1.0 mg b.i.d., placebo 23%, p=0.005",40%
same,tolerability,"[5]; fixed dose, 12 weeks",well tolerated
same,solubility in ethanol,[6]; ethanol,5400 µg/mL
same,solubility in water,[6]; water,11600 µg/mL
same,IC50,[7],1.2 nM
same,"ratio of IC50 values, mu relative to kappa (kappa = 1)",[8],~501
same,"ratio of IC50 values, delta relative to kappa (kappa = 1)",[9],~498
Cc1[nH]cnc1CN1CCc2c(c3ccccc3n2C)C1=O [LOTRONEX],improvement in the percentage of pain-free days,[10],10%
